Where no end group is shown, it is not given here. The star is where a group is joined. Nif = α,α,α-trifluoro-m-toluidino-nicotinyl, O=C(c1cccnc1Nc1cccc(C(F)(F)F)c1)*
Target: T1, purified human P-selectin (Homo sapiens, UniProt P16109)
T1 construct: P-selectin is isolated from human platelet lysates; from tissue; host or cells: outdated human platelet packs (platelet lysates)
T1 sequence (P16109 42-830): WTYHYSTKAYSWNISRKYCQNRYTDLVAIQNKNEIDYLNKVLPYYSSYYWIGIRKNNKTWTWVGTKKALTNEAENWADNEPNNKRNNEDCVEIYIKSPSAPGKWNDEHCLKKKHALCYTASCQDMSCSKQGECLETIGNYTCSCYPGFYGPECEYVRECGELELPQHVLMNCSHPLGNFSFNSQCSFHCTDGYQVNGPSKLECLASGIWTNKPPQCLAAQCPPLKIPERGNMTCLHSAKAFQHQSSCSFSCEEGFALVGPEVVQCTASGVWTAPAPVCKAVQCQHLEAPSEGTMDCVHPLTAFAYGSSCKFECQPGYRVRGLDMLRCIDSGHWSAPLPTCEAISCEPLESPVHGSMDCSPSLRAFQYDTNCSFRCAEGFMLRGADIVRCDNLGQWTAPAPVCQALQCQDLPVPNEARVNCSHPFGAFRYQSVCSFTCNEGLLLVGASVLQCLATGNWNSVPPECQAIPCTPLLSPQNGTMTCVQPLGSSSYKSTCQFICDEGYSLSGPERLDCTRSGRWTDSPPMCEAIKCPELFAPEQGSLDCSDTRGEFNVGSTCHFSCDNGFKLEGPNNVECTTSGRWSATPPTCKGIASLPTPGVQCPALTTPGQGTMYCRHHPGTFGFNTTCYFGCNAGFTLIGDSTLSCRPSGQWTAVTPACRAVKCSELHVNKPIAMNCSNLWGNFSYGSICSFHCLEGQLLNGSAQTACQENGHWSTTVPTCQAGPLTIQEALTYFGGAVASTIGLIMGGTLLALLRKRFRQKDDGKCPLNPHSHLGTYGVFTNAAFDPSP
Experiment: Neutrophil adhesion to purified P-selectin immobilized on plastic wells
Format: cell-based
Details: result in words
Description: Peptides can be screened for their ability to inhibit adhesion to cells, for example, neutrophil adhesion to purified P-selectin immobilized on plastic wells, using the assay described by Geng, et al., Nature 343, 757-760 (1990).
Human neutrophils are isolated from heparinized whole blood by density gradient centrifugation on Mono-Poly resolving media, Flow Laboratories. Neutrophil suspensions are greater than 98% pure and greater than 95% viable by trypan blue exclusion. For adhesion assays, neutrophils are suspended at a concentration of 2×10^6 cells/mL in Hanks' balanced salt solution containing 1.26 mM Ca^2+ and 0.81 mM Mg^2+ (HBSS, Gibco) with […] human serum albumin (HBSS/HSA). Adhesion assays are conducted in triplicate in 96-well microtiter plates, Corning, incubated at 4° C. overnight with 50 microliters of various protein solutions.
P-selectin is isolated from human platelet lysates by immunoaffinity chromatography on antibody S12-Sepharose™ and ion-exchange chromatography on a Mono-Q™ column (FLPC, Pharmacia Fine Chemicals), as follows. […]
Bound P-selectin is eluted from the S12 Affigel with 100 mL of 80% ethylene glycol, 1 mM MES pH 6.0, 0.01% Lubrol PX. Peak fractions with absorbance at 280 nm are pooled. […]

Substance	inhibit the adhesion of human neutrophils to purified human P-selectin (FIG. I)
YTDLVAI-NH2 [SEQ ID NO: 4, Tyr-Thr-Asp-Leu-Val-Ala-Ile-NH2]	inhibit the adhesion
SEQ ID NO: 10: peptide of Formula I shown in FIG. I; its sequence is not printed in the text (Nif-TDLVAIQ-NH2)	inhibit the adhesion

— patent US5602230A, “Peptide inhibitors of selectin binding” (Centocor, Inc., priority 1995, dated 1997)
